Data set [1] concerns C57BL/6N mice inoculated with B16F10 melanoma cells. The experiment in a line: Tumor mouse model (B16F10 melanoma). The following applies: 0.1 weight-% in chow, vs tumor mice. The class given is in vivo. The text has this:
8 weeks old female C57BL/6N mice were inoculated with B16F10 melanoma cells (9×10^5 cells) or saline (sham, n=10). Within the first 3 days after tumor inoculation, the B16F10 mice as well as the sham mice received regular chow. Then the B16F10 mice were randomly divided in three groups, where the first group received MyoMed-946 chow (Tumor+MyoMed-946, n=10), the second group received MyoMed-205 chow (Tumor+MyoMed-205, n=10) and the third group received an identical chow but without the addition of the selected compounds (Tumor, n=10). The compound concentration in the chow was 0.1 weight-%, resulting in a daily compound intake per mouse of about 3 mg. Also the sham group was fed with an identical chow but without the addition of the selected compound. Wire-hang tests (muscle function) were performed with each mouse 9, 16 and 23 days after tumor inoculation. For this purpose, a standard wire hang construction was used with a wire (length: of 40 cm, diameter: 2.5 mm) at a height of 70 cm above the floor. Under the center of the wire a large box with sawdust was placed. For testing, the mouse was hung to the wire with the two limbs and hang time was recorded. Each animal had three attempts for 180 sec. max each. After three attempts, the maximal holding impulse was calculated (hanging time×body weight).
Mice were sacrificed 25 days after tumor inoculation. […]

Data set [2] relates to MuRF1, Nox 2, LC3 I/II, nitrotyrosine. The experiment in a line: Protein expression and nitrotyrosine in muscle tissue of B16F10 mice. The data set is classed as in vivo. The following applies: tumor+compound vs tumor. The method, then: Protein expression of MuRF1, Nox 2 and LC3 I/II in muscle tissue of B16F10 mice was determined as described above for the MCT and CHF mice. In addition, the level of the reactive oxygen species marker nitrotyrosine was determined.

The test system of another data set is Murine C2C12 myoblasts. Nature of the data set: Cytotoxicity, LDH release in cultured myoblasts. The data set is classed as cell-based. The following applies: increasing concentrations, 24 h. The method, then:
Murine C2C12 myoblasts (CRL-1772, ATCC) were cultured in DMEM (Lonza; Basel, Switzerland) supplemented with 10% fetal calf serum (FCS; Gibco®Invitrogen, Carlsbad, CA). For induction of differentiation into myotubes, subconfluent cultures were switched to DMEM containing 2% horse serum (Sigma-Aldrich; Seelze, Germany). Myotubes were subsequently pre-treated for 2 h with increasing compound concentrations (0.1 to 10 μmol/L, dissolved in DMSO) or with an equal volume of DMSO before treatment for 24 h with 10 μmol/L dexamethasone (DEX; Sigma-Aldrich; Seelze, Germany). Myotube diameter was then evaluated by image analysis software (Analysis 3.0, Olympus Soft Imaging Solutions GmbH, Munster, Germany). To determine cytotoxicity of selected compounds, myoblasts or myotubes were incubated with increasing concentrations for 24 h. Subsequently, the concentration of lactate dehydrogenase (LDH) activity was quantified in the cell culture supernatant as a measure for cell destruction as described in Bellocci et al., Anal Biochem, 2008, 374, 48-55.

Data set [3] concerns diaphragm fiber bundle of CHF mice. Nature of the data set: Contractile function of diaphragm fiber bundles, CHF mice. The data set is classed as in vivo. The method, then: To provide a direct functional assessment, the contractility in skeletal muscle fiber bundles, i.e. fibre bundle from the diaphragm of MCT mice and CIF mice, was measured as follows. A fiber bundle from the diaphragm was isolated to allow in vitro contractile function to be assessed using a length-controlled lever system (301B, Aurora Scientific Inc., Aurora, Canada), as described by Bowen et al., FASEB J, 2017, 31. Briefly, a muscle bundle was mounted vertically in a buffer-filled organ bath (˜22° C.), set at optimal length, and after 15 min was stimulated over a force-frequency protocol between 1-300 Hz (600 mA; 500 ms train duration; 0.25 ms pulse width). […] Shortening velocity was determined 10 ms after the first change in length and on the linear section of the transient (DMA software, Aurora Scientific). Force (N) was normalized to muscle cross-sectional area (CSA; cm^2) by dividing muscle mass (g) by the product of Lo (cm) and estimated muscle density (1.06), which allowed specific force in N/cm^2 to be calculated. Shortening velocity was normalized to optimal muscle length (in Lo/s), while power was calculated for each load as the product of shortening velocity and specific force (in W/cm^2).

The text below walks through data of patent US12331042B2, “Compounds suitable for the treatment and prophylaxis of muscle wasting and other conditions” (priority 2019, dated 2025).

Entries after “also recorded” stand apart in the source; their conditions may differ.

As to `Cc1cc(=O)oc2cc(OCc3ccc(C(=O)OCC(=O)NC(=O)NCc4ccco4)cc3)ccc12` [MyoMed-946, [2-(2-furylmethylcarbamoylamino)-2-oxo-ethyl] 4-[(4-methyl-2-oxo-chromen-7-yl)oxymethyl]benzoate], the “tumor induced skeletal muscle atrophy (TA muscle weight)” value in data set [1] (25 days after inoculation, at least to certain extent) is “attenuated”. For the same compound, in data set [1] (9, 16 and 23 days after inoculation), the “loss of muscle function in wire-hang test” value is “attenuated; also recorded: significantly attenuates the loss of muscle function”. For the same compound, in data set [2], the “downregulation of expression levels of LC3 I/II” value was “attenuated; also recorded: not observed”, the “expression of Nox 2” value was “attenuated; also recorded: significantly reduced”, the “tissue level of nitrotyrosine” value was “attenuated; also recorded: significantly reduced” and the “up-regulation of MuRF1 expression” value is on record as “attenuated; also recorded: prevented”. In addition, the “toxicity (LDH release)” value with Murine C2C12 myoblasts was “low toxicity”. Moreover, the “post-infarct diaphragm weakness (diaphragm myopathy)” value in data set [3] (CHF mice fed compound vs control chow, week 10) was “protected mice from such a post-infarct diaphragm weakness”. Also, the “loss of diaphragm function and diaphragm maximal force due to chronic heart failure” value in data set [3] (CHF mice fed compound vs untreated CHF mice) is “significantly reduced”.
